Laboratory results published in article PMC2821678 (Chemico-biological interactions, 2009).
Where two headings read alike, the source gives them in different places.

Tests used:
B16-F0 melanoma cells = assay: MTT cell viability, B16-F0; type: cell-based, murine; settings: Mus musculus, B16F0, 48 h, read-out: IC50 (48 h) B16-F0
Mushroom tyrosinase = assay: Tyrosinase mediated GSH depletion assay; type: biochemical; settings: for % GSH depletion (2 h) Tyrosinase/O2: 2 h incubation
SK-MEL-28 melanoma cells = assay: MTT cell viability, SK-MEL-28; type: cell-based, human; settings: read-out: IC50 (48 h) SK-MEL-28
[1] = test system: tyrosinase shRNA transfected SK-MEL-28 cells; assay: Drug sensitivity assay using tyrosinase shRNA transfected cells; type: cell-based, human; settings: 4-HA 50 μM
[2] = clinical trials terminated; cited from earlier work

| IC50 (B16-F0 melanoma cells) | % GSH depletion (2 h) Tyrosinase/O2 (Mushroom tyrosinase) | IC50 (SK-MEL-28 melanoma cells; Homo sapiens, SK-MEL-28, 48 h) | Molecule | also measured |
| --- | --- | --- | --- | --- |
| 0.043 mM | 24±3% | 3.4 mM | COc1cccc(O)c1 [3-hydroxyanisole] |  |
| 0.06 mM |  | 0.05 mM | COc1ccc(O)cc1 [4-hydroxyanisole] | cell toxicity when tyrosinase was silenced by shRNA plasmid [1]: significantly less cell toxicity; liver toxicity in clinical trials [2]: serious liver toxicity; % GSH depletion Tyrosinase/O2 (Mushroom tyrosinase; measurement conducted at 30 min): 95±3 % |
| 1.1 mM | 0% | 1.5 mM | OCc1ccccc1O [2-hydroxybenzyl alcohol] |  |
| 3 mM |  | 8 mM | CC(=O)c1ccc(O)cc1 [4-hydroxyacetophenone] |  |
| > 12 mM | 44±3% | > 10 mM | CC(=O)c1ccccc1 [Acetophenone, acetophenone, reference compound] |  |
| 2.2 mM |  | 2 mM | OCc1ccc(O)cc1 [4-hydroxybenzyl alcohol] |  |
| 4.2 mM | 30±5% | 11.2 mM | O=C(O)c1ccc(O)cc1 [4-hydroxybenzoic acid] |  |
|  |  | 2 mM | Cc1ccc(O)cc1 [4-hydroxytoluene] |  |
| 1.8 mM |  | 2.3 mM | O=C(O)c1cccc(O)c1 [3-hydroxybenzoic acid] |  |
|  |  |  | 2-hydroxyacetophenone | IC50 (SK-MEL-28 melanoma cells; 48 h, MTT): 4 mM |

| Molecule | IC50 (B16-F0 melanoma cells) | % GSH depletion (2 h) Tyrosinase/O2 (Mushroom tyrosinase) | IC50 (SK-MEL-28 melanoma cells; Homo sapiens, SK-MEL-28, 48 h) | also measured |
| --- | --- | --- | --- | --- |
| Cc1ccccc1 [Toluene, toluene, reference compound] | > 10 mM |  | 10 mM |  |
| Cc1cccc(O)c1 [3-hydroxytoluene] | 2.1 mM |  | 2.5 mM |  |
| Cc1ccccc1O [2-hydroxytoluene] | 3.2 mM |  | 3.2 mM |  |
